Measurements reported in ChEMBL document CHEMBL5465560, “Selectivity Literature for EUbOPEN Chemogenomic Library” (2024).

Columns and labels:
[1] = target: Serine/threonine-protein kinase Nek7 (Homo sapiens) (UniProt Q8TDX7); assay: Selectivity interaction (KinomeScan (DiscoverX)) EUB0001079a NEK7; details: at 1 µM
[2] = target: T1, cGMP-dependent protein kinase 1 (Homo sapiens) (UniProt Q13976); assay: Selectivity interaction (Kinase panel (Invitrogen)) EUB0000639a PRKG1; details: at 200 nM
T1 sequence (whole entry): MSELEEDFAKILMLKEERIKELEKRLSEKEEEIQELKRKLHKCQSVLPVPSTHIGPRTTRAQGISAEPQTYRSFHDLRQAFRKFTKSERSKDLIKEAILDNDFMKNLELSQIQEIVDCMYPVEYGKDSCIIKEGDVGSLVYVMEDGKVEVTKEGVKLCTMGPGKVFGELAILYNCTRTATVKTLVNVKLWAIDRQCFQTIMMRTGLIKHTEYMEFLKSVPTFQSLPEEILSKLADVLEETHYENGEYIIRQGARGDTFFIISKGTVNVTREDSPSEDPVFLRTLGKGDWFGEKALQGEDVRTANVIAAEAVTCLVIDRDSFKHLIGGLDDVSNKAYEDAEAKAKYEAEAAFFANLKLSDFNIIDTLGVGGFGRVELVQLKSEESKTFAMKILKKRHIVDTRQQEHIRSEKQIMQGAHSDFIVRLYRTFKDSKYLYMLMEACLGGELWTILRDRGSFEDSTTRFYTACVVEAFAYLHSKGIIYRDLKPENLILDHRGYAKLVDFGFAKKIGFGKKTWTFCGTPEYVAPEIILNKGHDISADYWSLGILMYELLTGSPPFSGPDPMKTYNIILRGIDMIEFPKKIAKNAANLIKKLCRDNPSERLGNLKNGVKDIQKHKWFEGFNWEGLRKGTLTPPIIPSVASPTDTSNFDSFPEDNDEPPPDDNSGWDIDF

[3] = target: T2, Protein kinase C epsilon type (Homo sapiens) (UniProt Q02156); assay: Selectivity interaction (KinomeScan (DiscoverX)) EUB0001619a PRKCE; details: at 1 µM
T2 sequence (whole entry): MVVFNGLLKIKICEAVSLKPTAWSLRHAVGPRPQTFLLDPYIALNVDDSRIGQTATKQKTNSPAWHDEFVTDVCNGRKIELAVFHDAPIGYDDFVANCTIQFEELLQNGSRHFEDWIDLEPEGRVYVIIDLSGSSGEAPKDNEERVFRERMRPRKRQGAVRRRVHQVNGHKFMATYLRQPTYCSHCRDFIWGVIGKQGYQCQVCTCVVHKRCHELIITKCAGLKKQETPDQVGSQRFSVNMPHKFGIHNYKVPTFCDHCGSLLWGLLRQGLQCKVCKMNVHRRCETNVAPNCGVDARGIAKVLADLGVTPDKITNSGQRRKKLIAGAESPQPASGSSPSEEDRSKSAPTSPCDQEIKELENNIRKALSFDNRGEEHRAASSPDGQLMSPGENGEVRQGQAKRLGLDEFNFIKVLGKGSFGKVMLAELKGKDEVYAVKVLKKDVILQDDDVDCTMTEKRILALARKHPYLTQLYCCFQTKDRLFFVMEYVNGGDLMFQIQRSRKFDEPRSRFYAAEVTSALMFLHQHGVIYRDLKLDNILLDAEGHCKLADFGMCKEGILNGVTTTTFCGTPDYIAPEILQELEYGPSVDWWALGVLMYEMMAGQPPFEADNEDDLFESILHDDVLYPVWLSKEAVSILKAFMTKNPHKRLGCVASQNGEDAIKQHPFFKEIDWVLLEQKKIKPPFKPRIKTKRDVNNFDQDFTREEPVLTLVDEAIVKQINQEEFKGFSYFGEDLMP

[4] = target: T3, Serine/threonine-protein kinase Nek1 (Homo sapiens) (UniProt Q96PY6); assay: Selectivity interaction (ProQinase) EUB0000171b NEK1
T3 sequence (whole entry): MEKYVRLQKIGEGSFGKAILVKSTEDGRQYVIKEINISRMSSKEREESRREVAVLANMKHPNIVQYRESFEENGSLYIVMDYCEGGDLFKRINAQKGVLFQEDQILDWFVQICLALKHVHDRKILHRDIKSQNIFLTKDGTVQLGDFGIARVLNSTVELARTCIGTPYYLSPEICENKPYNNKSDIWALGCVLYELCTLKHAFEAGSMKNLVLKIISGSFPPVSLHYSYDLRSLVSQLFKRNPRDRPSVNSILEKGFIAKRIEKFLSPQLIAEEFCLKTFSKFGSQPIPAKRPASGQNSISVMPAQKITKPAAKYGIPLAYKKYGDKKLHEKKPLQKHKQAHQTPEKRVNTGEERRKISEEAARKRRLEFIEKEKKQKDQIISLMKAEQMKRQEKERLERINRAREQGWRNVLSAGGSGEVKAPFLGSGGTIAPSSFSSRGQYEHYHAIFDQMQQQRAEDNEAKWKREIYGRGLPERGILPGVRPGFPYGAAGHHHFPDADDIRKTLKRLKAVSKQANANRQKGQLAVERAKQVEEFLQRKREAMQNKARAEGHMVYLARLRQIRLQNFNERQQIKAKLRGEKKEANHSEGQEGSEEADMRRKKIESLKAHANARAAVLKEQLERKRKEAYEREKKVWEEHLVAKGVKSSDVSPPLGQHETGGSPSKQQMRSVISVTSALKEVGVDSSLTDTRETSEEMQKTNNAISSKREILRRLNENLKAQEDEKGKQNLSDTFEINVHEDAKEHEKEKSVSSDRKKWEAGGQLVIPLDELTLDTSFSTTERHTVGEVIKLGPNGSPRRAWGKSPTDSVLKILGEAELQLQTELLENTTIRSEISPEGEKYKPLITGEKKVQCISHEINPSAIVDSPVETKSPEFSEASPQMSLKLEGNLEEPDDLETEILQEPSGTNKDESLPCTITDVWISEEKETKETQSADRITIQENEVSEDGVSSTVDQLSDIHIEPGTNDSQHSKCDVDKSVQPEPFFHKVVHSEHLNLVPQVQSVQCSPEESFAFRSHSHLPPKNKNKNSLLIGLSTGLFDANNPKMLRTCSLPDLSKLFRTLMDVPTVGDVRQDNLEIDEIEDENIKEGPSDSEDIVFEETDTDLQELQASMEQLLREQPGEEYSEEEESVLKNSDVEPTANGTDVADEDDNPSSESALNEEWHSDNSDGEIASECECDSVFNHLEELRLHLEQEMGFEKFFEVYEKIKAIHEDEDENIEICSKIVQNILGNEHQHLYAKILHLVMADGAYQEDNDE

Serine/threonine-protein kinase Nek7 (Homo sapiens), sequence (Q8TDX7 whole entry, looked up): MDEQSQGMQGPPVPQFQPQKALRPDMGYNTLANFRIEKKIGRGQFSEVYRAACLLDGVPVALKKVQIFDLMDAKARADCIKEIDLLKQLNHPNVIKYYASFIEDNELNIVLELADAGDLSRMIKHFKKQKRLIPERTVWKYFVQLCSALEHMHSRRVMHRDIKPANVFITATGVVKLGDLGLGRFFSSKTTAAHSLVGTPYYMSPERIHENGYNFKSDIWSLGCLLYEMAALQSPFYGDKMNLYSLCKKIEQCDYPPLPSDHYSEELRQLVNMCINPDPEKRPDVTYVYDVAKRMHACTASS

Nc1cnc(N2CCc3cc(S(=O)(=O)Nc4c(F)cc(Cl)cc4F)cc(N4CCCC4=O)c32)nc1 [TP-020n]
% of control [1]: 96%

CC[C@@H]1[C@H](F)C(=O)N[C@@H]1COc1nccc2cc(C(N)=O)c(OC)cc12 [ZIMLOVISERTIB]
% of inhibition [2]: 8.62%

N#Cc1cccc(-c2c[nH]c3ncnc(N4CCOCC4)c23)c1
% of control [3]: 12%

C=CC(=O)Nc1cccc(C(=O)Nc2ccc(Nc3cc(-c4[nH]c(SC)nc4C)ccn3)cc2)c1
% of control ([4]; at 1 µM): 80% | % of control ([4]; at 5 µM): 64%
